This is an account of results in ChEMBL document CHEMBL5291721, “A preclinical secondary pharmacology resource illuminates target-adverse drug reaction associations of marketed drugs” (Nat Commun, 2023).

Assay [1] deals with Cannabinoid receptor 1 (Homo sapiens, UniProt P21554). Type of assay: functional, cell-based.
Assay [2] concerns the target T1, Adenosine receptor A1 (Homo sapiens, UniProt P30542).
T1 sequence (P30542 whole entry): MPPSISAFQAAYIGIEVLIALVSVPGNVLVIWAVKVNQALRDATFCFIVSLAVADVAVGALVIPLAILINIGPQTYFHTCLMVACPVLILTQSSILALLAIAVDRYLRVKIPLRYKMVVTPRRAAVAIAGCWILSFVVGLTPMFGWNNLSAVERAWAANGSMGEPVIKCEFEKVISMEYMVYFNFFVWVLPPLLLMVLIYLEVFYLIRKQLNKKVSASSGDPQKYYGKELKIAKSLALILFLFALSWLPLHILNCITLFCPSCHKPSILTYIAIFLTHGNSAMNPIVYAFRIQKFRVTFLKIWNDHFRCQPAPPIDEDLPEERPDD

Assay [3] concerns the target T2, 5-hydroxytryptamine receptor 3A (Homo sapiens, UniProt P46098).
T2 sequence (P46098 whole entry): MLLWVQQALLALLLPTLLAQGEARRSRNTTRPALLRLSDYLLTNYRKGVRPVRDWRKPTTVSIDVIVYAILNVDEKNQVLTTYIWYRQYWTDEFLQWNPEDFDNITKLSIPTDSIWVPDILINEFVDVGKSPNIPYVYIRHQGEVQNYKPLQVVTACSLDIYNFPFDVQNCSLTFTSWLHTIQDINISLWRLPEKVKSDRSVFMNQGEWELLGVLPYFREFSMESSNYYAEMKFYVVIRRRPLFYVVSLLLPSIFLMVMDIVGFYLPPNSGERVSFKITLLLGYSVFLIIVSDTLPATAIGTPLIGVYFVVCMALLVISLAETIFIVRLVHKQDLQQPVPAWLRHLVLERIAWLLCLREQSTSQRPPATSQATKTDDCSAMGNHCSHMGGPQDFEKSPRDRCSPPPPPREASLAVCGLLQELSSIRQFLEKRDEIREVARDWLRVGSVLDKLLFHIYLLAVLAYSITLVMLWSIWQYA
Type of assay: functional.

The target in assay [4] is T3, Endothelin-1 receptor (Homo sapiens, UniProt P25101).
T3 sequence (P25101 whole entry): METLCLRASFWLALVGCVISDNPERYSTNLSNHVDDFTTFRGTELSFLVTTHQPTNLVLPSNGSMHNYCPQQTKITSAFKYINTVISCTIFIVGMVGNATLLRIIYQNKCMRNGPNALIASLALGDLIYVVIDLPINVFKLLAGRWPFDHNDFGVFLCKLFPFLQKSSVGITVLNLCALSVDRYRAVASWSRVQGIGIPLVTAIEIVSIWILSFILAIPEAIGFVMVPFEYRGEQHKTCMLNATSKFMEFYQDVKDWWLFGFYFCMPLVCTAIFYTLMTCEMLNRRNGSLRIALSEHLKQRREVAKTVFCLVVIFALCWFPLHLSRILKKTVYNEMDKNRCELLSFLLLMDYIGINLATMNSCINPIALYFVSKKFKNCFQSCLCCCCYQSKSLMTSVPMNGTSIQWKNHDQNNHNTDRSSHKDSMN

Assay [5] concerns the target Histamine H2 receptor (Homo sapiens, UniProt P25021). Type of assay: functional, cell-based.
For assay [6], the target named is Kappa-type opioid receptor (Homo sapiens, UniProt P41145).
Assay [7] has as its target T4, 5-hydroxytryptamine receptor 2A (Homo sapiens, UniProt P28223). Type of assay: functional, cell-based.
Assay [8] addresses T5, Alpha-2C adrenergic receptor (Homo sapiens, UniProt P18825).
T5 sequence (P18825 whole entry): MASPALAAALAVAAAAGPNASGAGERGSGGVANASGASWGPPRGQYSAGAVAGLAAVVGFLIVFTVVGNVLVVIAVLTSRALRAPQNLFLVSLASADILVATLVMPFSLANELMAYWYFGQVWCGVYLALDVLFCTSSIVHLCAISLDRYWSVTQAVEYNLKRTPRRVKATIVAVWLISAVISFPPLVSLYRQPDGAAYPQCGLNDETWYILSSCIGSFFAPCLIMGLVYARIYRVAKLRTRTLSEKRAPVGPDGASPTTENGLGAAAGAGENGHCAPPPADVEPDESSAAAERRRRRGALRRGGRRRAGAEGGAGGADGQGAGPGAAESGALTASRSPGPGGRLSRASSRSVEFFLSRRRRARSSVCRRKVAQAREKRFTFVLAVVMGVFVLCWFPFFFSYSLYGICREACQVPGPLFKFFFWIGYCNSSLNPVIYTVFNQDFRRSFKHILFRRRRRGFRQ
The format is functional.

In assay [9] the target is Histamine H3 receptor (Homo sapiens, UniProt Q9Y5N1).
Assay [10] concerns the target T6, Estrogen receptor (Homo sapiens, UniProt P03372).
T6 sequence (P03372 whole entry): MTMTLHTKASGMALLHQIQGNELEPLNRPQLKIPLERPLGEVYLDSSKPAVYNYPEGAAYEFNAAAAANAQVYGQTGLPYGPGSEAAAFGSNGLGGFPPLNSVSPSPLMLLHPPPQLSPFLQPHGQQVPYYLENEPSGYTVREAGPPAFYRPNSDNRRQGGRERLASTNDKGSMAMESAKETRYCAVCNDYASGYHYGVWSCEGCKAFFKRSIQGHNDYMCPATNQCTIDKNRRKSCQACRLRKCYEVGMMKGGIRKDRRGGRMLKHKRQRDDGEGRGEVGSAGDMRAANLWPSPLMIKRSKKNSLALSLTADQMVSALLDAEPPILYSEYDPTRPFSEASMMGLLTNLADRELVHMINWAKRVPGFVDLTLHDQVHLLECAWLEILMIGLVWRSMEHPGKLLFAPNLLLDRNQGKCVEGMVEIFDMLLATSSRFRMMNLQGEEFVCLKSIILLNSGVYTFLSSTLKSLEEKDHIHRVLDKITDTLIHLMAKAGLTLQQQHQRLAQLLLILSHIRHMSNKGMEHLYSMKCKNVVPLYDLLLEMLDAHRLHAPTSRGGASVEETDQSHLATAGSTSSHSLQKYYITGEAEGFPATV

Assay [11] deals with Neuronal acetylcholine receptor subunit alpha-4 (Homo sapiens, UniProt P43681).
Assay [12] has as its target Gamma-aminobutyric acid receptor subunit alpha-1 (Rattus norvegicus, UniProt P62813). Type of assay: functional.
For assay [13], the target named is T4, 5-hydroxytryptamine receptor 2A. The format is functional, cell-based. This is another data set of the same source.
Also: assay procedure not described here.

Sequence of Kappa-type opioid receptor (P41145 whole entry): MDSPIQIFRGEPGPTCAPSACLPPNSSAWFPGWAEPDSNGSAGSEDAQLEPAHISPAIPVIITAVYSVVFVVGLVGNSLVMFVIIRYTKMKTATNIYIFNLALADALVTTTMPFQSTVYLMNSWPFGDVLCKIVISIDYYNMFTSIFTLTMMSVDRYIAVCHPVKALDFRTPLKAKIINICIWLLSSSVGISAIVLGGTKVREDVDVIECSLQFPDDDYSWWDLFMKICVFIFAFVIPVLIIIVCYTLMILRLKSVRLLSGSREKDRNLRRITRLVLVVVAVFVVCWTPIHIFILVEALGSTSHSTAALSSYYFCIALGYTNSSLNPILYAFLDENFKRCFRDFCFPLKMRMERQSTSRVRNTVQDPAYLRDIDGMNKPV
Sequence of Histamine H2 receptor (P25021 whole entry): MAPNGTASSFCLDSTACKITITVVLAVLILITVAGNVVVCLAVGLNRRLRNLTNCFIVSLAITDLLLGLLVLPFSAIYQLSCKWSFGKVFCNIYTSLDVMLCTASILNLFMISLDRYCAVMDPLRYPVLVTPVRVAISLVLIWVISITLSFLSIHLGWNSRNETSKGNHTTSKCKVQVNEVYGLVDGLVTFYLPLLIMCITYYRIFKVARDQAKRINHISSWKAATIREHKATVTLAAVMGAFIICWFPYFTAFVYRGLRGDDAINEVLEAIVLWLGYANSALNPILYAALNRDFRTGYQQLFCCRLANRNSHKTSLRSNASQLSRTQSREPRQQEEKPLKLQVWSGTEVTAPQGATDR
T4 sequence (P28223 whole entry): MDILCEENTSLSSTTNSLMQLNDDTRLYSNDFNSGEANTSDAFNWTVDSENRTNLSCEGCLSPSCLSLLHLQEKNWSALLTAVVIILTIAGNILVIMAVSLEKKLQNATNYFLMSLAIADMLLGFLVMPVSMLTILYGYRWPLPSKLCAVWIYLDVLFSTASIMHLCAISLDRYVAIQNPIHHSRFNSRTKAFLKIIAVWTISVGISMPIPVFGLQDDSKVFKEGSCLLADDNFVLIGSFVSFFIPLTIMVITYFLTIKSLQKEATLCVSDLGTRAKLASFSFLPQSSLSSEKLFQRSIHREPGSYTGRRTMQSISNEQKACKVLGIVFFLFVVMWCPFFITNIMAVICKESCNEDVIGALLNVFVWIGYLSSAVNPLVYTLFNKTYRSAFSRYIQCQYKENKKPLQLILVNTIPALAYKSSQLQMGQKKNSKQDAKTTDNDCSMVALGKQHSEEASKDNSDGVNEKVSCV
Sequence of Histamine H3 receptor (Q9Y5N1 whole entry): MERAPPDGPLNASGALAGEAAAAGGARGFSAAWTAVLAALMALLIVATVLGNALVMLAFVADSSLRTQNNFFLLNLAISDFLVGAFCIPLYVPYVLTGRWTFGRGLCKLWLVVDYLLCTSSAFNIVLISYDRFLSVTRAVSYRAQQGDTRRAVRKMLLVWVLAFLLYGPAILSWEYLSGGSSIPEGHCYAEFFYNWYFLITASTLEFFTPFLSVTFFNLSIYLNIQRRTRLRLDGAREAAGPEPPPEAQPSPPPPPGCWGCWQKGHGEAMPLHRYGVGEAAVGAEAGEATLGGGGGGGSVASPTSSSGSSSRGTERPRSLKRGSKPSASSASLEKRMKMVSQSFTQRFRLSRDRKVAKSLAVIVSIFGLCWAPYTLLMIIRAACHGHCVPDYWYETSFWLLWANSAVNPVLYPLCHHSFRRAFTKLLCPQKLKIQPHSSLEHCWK
Sequence of Neuronal acetylcholine receptor subunit alpha-4 (P43681 whole entry): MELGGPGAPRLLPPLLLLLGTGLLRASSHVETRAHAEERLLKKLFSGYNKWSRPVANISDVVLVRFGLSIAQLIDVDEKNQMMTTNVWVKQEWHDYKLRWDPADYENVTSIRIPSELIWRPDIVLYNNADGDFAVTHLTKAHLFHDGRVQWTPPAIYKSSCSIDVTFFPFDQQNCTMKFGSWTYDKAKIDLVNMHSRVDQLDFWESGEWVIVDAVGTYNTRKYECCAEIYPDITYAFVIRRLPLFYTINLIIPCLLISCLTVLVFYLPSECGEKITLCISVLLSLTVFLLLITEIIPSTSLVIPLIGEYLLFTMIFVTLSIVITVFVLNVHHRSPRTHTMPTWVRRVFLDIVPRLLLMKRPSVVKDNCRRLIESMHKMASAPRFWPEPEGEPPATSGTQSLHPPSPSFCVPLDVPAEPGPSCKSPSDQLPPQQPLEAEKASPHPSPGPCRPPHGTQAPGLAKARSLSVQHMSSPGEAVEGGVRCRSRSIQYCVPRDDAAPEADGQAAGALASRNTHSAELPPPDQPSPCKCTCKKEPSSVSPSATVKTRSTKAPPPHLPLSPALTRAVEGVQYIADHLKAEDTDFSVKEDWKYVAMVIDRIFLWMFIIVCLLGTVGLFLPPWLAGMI
Sequence of Cannabinoid receptor 1 (P21554 whole entry): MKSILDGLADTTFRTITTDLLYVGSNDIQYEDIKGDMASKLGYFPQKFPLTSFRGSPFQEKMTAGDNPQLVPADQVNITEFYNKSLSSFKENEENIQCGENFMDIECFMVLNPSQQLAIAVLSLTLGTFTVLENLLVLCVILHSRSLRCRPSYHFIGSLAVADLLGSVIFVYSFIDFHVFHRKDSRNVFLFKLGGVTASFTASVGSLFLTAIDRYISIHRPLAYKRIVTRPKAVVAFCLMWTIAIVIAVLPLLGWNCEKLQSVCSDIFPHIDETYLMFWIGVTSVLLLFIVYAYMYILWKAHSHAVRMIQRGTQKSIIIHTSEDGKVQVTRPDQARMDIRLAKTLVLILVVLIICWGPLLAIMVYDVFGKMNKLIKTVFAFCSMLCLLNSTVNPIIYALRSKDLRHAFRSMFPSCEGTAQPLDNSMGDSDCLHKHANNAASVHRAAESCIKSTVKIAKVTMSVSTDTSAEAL
Sequence of Gamma-aminobutyric acid receptor subunit alpha-1 (P62813 whole entry): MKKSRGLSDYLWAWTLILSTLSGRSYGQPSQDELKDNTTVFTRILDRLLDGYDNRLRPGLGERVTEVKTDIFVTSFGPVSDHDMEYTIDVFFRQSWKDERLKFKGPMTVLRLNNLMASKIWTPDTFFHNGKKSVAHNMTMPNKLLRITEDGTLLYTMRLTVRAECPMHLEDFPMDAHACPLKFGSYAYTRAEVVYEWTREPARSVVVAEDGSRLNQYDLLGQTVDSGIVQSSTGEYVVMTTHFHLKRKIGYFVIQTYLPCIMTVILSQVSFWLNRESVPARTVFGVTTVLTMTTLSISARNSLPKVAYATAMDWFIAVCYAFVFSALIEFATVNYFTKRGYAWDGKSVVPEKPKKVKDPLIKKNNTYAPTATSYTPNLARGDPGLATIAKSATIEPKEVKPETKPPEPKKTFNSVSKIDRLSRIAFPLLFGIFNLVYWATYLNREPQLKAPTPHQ

For the compound `CCC(NC(C)C)C(O)c1ccc(O)c2[nH]c(=O)ccc12` (stereo unspecified) [PROCATEROL], the AC50 in [1], in [2], in assay [3], in assay [4], in [5] and in assay [6] was more than 30 µM in each case. Also, the AC50 in [7], in [8], in assay [9], in [10], in assay [11] and in assay [12] was more than 30 µM in each case. The same compound registered an AC50 in assay [13] of more than 30 µM.
Consider `CC/C=C\C/C=C\C/C=C\C/C=C\C/C=C\CCCC(=O)OCC` [ICOSAPENT ETHYL], for which the AC50 in [1], in [2], in assay [3], in assay [4], in assay [5] and in assay [6] was more than 30 µM throughout. Further, the AC50 is more than 30 µM in [7]; more than 30 µM in assay [8]; more than 30 µM in assay [9]; more than 10 µM in assay [10]; more than 30 µM in assay [11]; more than 30 µM in [12]. Further, the AC50 in assay [13] was more than 30 µM.
Regarding `CC(C)N(CCCCOCC(=O)O)c1cnc(-c2ccccc2)c(-c2ccccc2)n1`, the AC50 in assay [1], in assay [2], in assay [3], in [4], in assay [5] and in assay [6] was more than 30 µM throughout. The AC50 in [7], in [8], in [9], in assay [10], in assay [11] and in assay [12] was more than 30 µM each time. The AC50 in [13] is more than 30 µM.
With `C[N+]12CCC(CC1)C(OC(=O)C(O)(c1ccccc1)c1ccccc1)C2` (stereo unspecified), the AC50 in [1], in [2], in assay [3], in assay [4], in [5] and in assay [6] was more than 30 µM in each case. The AC50 in assay [7], in assay [8], in [9], in [11], in [12] and in assay [13] was more than 30 µM in each case.
Consider `O=c1[nH]c2ccccc2n1CCCN1CCN(C(c2ccccc2)c2ccccc2)CC1` [OXATOMIDE], for which the AC50 in [1] is more than 30 µM; in [2], more than 30 µM; in assay [3], more than 30 µM; in assay [4], more than 30 µM; in [5], more than 30 µM; in [6] it was 13 µM. Besides, the AC50 in assay [7] is 1.2 µM; in assay [8], 0.89 µM; in assay [9], more than 30 µM; in [11], more than 30 µM; in assay [12], more than 30 µM; in [13], more than 30 µM.
For the compound `CN1CCN=C(c2ccccc2)c2cc(Cl)ccc21` [MEDAZEPAM], the AC50 in [1] is more than 30 µM; in [2], more than 30 µM; in assay [3], more than 30 µM; in [4], more than 30 µM; in [5] it was more than 30 µM; in [6], 0.99 µM. The concentration at half-maximal activity (AC50) in assay [7] was more than 30 µM; in assay [8] it was more than 30 µM; in [9], more than 30 µM; in assay [11] it was 30 µM; in assay [12], 2.1 µM; in assay [13], more than 30 µM.
Regarding `CCN1CCCC1CNC(=O)c1cc(S(=O)(=O)CC)ccc1OC` (stereo unspecified) [SULTOPRIDE], the AC50 in [1], in [2], in assay [3], in assay [4], in [5] and in [6] was more than 30 µM in each case. For the same compound, the AC50 was more than 30 µM in [7]; 4.5 µM in assay [8]; 22 µM in assay [9]; more than 30 µM in assay [11]; more than 30 µM in assay [12]; more than 30 µM in assay [13].
For the compound `COc1ccc(CN2CCN(C(c3ccc(F)cc3)c3ccc(F)cc3)CC2)c(OC)c1OC` [LOMERIZINE], the AC50 in assay [1] was 23 µM; in assay [2], more than 30 µM; in assay [3], more than 30 µM; in assay [4], more than 30 µM; in [5], more than 30 µM; in assay [6] it was 12 µM. Further, the AC50 in assay [7] was 21 µM; in assay [8] it was 4.2 µM; in assay [9] it was more than 30 µM; in assay [11], more than 30 µM; in [12], more than 30 µM; in [13] it was more than 30 µM.
`COc1cc2[nH]c(C)c(CCN3CCN(c4ccccc4)CC3)c2cc1OC` [OXYPERTINE]: the AC50 in assay [1], in [2], in [3], in assay [4], in [5] and in [6] was more than 30 µM each time. The AC50 in assay [7] is 0.41 µM; in [8], 1.4 µM; in assay [9] it was more than 30 µM; in assay [11] it was 27 µM; in assay [12], more than 30 µM; in [13], more than 30 µM.
`CO/N=C(\C(=O)N[C@@H]1C(=O)N2C(C(=O)O)=CCS[C@H]12)c1csc(N)n1` [CEFTIZOXIME]: the AC50 in assay [1], in [2], in assay [4], in assay [5], in assay [7] and in assay [8] was more than 30 µM each time. Also, the AC50 in assay [9], in assay [10], in assay [11] and in [13] was more than 30 µM each time.
